IC50 data for one molecule are collected here from patent publication US7601868B2, “Amine derivative” (Takeda Pharmaceutical Company Limited, priority 2003, dated 2009).

In this experiment the target is T1, SLC-1 (Homo sapiens, UniProt Q99705).
T1 construct: expressed in transfected cells; host or cells: CHO cells (human SLC-1 clone 57 / rat SLC-1 clone 44), membrane fraction
Briefly: Antagonistic activity using GTPγS binding assay (SLC-1 expression CHO cell membrane fraction, MCH-stimulated). The experiment is classed as biochemical, human/rat. The note with it: [35S]-GTPγS binding to SLC-1 expression CHO cell membrane fraction in the presence of MCH, 25° C., 1 hr; read-out: Inhibitory activity (IC50: nM). On the procedure: Determination of Antagonistic Activity of Test Compound Using GTP γ S Binding Assay
Using human SLC-1 expression CHO cell clone 57 and rat SLC-1 expression CHO cell clone 44 described in WO01/82925, SLC-1 expression CHO cell membrane fractions were prepared by the following method. In phosphate buffered saline (pH 7.4) supplemented with 5 mM EDTA (ethylenediamine tetraacetic acid) were suspended human and rat SLC-1 expression CHO cells (1×10^8) and centrifuged. Homogenate buffer (10 ml, 10 mM NaHCO3, 5 mM EDTA, pH 7.5) was added to the pellets of the cells and, using Polytron Homogeniser, the mixture was homogenated. The supernatant obtained after centrifugation at 400×g for 15 min was further centrifuged at 100,000×g for 1 hr to give precipitate of the membrane fraction. […]
The antagonistic activity of the test compound was determined as follows. […] Liquid scintillator (50 ml) was added to the glass filter and the residual radioactivity was determined by a liquid scintillation counter. Binding inhibition (%)=(radioactivity upon addition of test compound and MCH−radioactivity upon addition of DMSO solution)/(radioactivity upon addition of MCH−radioactivity upon addition of DMSO solution)×100
From the binding inhibition (%), IC50 of the test compound was calculated.

T1 sequence (Q99705 whole entry, species assumed): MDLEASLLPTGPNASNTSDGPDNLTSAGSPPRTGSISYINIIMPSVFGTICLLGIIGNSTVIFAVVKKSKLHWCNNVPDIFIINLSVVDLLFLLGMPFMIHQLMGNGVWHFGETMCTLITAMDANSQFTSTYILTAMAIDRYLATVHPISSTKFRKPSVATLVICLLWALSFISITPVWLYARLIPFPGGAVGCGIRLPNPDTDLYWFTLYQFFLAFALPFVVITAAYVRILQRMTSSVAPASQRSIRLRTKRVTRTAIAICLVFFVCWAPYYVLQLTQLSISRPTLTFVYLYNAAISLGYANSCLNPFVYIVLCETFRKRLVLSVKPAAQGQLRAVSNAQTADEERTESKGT

In the case of `CC(c1ccc(CCNC(=O)c2ccc(-c3ccc(Cl)cc3)cc2)cc1)N1CCCCCC1` (stereo not shown) [Example 67, N-(2-{4-[1-(1-azepanyl)ethyl]phenyl}ethyl)-4′-chloro[1,1′-biphenyl]-4-carboxamide], the IC50 – broadly, the concentration needed to halve the response being measured – came to 3 nM.
